According to article PMC8198038, “In Vitro Evaluation of Antiproliferative Properties of Novel Organotin(IV) Carboxylate Compounds with Propanoic Acid Derivatives on a Panel of Human Cancer Cell Lines” (Molecules, 2021):

Key:
[1] = tested on: PC-3 (human prostate cancer) cells; assay: CV (crystal violet) assay, PC-3 cells; assay type: cell-based; conditions: CV assay, 48 h incubation; read-out: IC50 (mean ± SD), PC-3, CV
Experimental: (§1) The cell proliferations of ligand precursors and organotin(IV) compounds were evaluated with the aid of MTT (3-(4,5-dimethylthiazol-2-yl)-2,5-12 diphenyltetrazolium bromide) and CV (crystal violet) assays toward prostate (PC-3), colon (HT-29), breast (MCF-7) and hepatic (HepG2) cancer cell lines, and normal mouse embryonic fibroblast cells (NIH 3T3). The cells were cultivated in T75 flasks containing 10 mL of complete medium and kept at 37 °C and 5% CO2 […]. The nutrient medium was RPMI-1640 (PAA Laboratories) supplemented with 10% foetal bovine serum, L-glutamine, and penicillin/streptomycin (Sigma). Afterward, 5.000 cells of PC-3 and MCF-7 and 1.500 cells of HT-29 and HepG2 were transferred into 96 well-plates and used for MTT and CV assays. For microscopy investigations as well as FACS measurements (except for ROS/RNS measurements), MCF-7 cells were seeded overnight in 6-well plates (150,000 cells/well) in […] of complete medium. […] In all assays, control cells were untreated MCF-7 cells incubated for the same time period as treated cells and treated with appropriate reagents in various assays. BD FACS Aria III was used for flow cytometry experiments and results were analysed using BD FACSDiva software (BD Biosciences, Heidelberg, Germany) and Cyflogic (V 1.2.1, CyFlo Ltd., Turku, Finland). A fluorescence microscope Invitrogen EVOS FL 2 Auto 2 Cell Imaging System was used for visualization of the cells as well as for detection of fluorescence in the cells.
(§2) Ligands HL1‒HL3, organotin(IV) compounds, and cisplatin were investigated in 9 different concentrations (100, 50, 10, 5, 1, 0.5, 0.1, 0.05, 0.01 μM). Using the complete medium, each stock solution of the test compounds (20 mM in DMSO) was diluted to obtain the working solution. The final concentration of DMSO never overstepped 0.5%, which is non-toxic to the cells. Three technical replicates were performed for each concentration. The treated cells were incubated for 48 h at 37 °C under 5% CO2 and the viability of the cells was determined using MTT and CV assays according to the literature procedure. The IC50 values, defined as 50% inhibitory concentration, were calculated with a four-parameter logistic function and presented in a mean. All experiments were performed in triplicate.

[2] = tested on: PC-3 (human prostate cancer) cells; assay: MTT assay, PC-3 cells; assay type: cell-based; conditions: MTT assay, 48 h incubation; read-out: IC50 (mean ± SD), PC-3, MTT
Experimental: as §1, §2

[3] = tested on: HepG2 (hepatocellular cancer) cells; assay: CV (crystal violet) assay, HepG2 cells; assay type: cell-based, human; conditions: CV assay, 48 h incubation; read-out: IC50 (mean ± SD), HepG2, CV
Experimental: as §1, §2

[4] = tested on: MCF-7 cells; assay: ROS/RNS (DHR) and NO (DAF-FM) production, flow cytometry; assay type: cell-based, human; conditions: 48 h, IC50 concentration
Source text: Reactive oxygen (ROS) and nitrogen species (RNS) are natural by-products of the aerobic metabolism in cells. At physiological concentrations, they play a significant role in regulating numerous cellular processes. On the other hand, it is well-known that the reactive oxygen (O2^•−, H2O2, OH^•−) and nitrogen species (NO) are highly reactive molecules that easily damage cells by interacting with biomolecules such as proteins, lipids, carbohydrates, and nucleic acids, thus triggering different pathological conditions (inflammation, cardiovascular disorders, neurodegenerative diseases, and the formation of cancer cells).
For the investigation of ROS/RNS production the cells from the T25 flask were collected by applying 1 mL of trypsin and diluted with 9 mL of complete medium. Using 1 mL of DHR (dihydrorhodamine) working solution the cells were stained and incubated at 37 °C and 5% CO2 for 10 min. The staining process was stopped by applying 4 mL of complete medium, then the solution was centrifuged for 3 min at 1000 rpm and the supernatant was discarded. The cells were resuspended in complete medium (1 mL/well) and seeded in a 6 well plate. […] The prepared cells were analysed by flow cytometry.
The cells were washed with PBS and then treated with 1 mL of DAF-FM (4-amino-5-methylamino-2,7′-diflurofluorescin diacetate) working solution. […] The prepared cells were analysed by flow cytometry.

[5] = tested on: MCF-7 cells; assay: Cell cycle analysis (DAPI, flow cytometry); assay type: cell-based, human; conditions: 48 h, IC50 dose
Experimental: The mode of action was further investigated by analysing the effects of Ph3SnL1 and cisplatin on the cell cycle phase distribution of MCF-7 cells. This was evaluated by cytofluorimetric analysis using DAPI staining. […] While cisplatin acts on DNA (among other effects), the lipophilic cationic nature of triphenyltin(IV) may guide it preferentially to mitochondria to intervene with cells’ energy metabolism.
The Falcon tubes were centrifuged for 3 min at 1000 rpm and the supernatant was discarded. Afterwards, the cells were washed with 1 mL of PBS, centrifuged for 3 min at 1000 rpm and the supernatant was discarded. The cells were resuspended in 300 μL of ice-cold PBS buffer and then fixed by adding them dropwise to 700 μL of ice-cold absolute ethanol. The cells were stored for 24 h at 4 °C, then centrifuged for 3 min at 1000 rpm, washed with PBS and stained with 1 mL of DAPI (4′,6-diamidino-2-phenylindole) working solution [39]. The prepared cells were incubated at room temperature for 10 min and analysed by flow cytometry.

[6] = tested on: MCF-7 cells; assay: Autophagy analysis (AO, flow cytometry); assay type: cell-based, human; conditions: 48 h, IC50 concentration
Experimental: Thereafter, the medium was collected into 15 mL Falcon tubes, while the cells were washed with 1 mL of PBS. The cells were detached using […] of trypsin. The deactivation of trypsination was performed with the formerly collected medium, while for the untreated cells, 1 mL of complete medium was added, and the cells were collected by the pipette tip harvesting technique from each well into a new Falcon tube, which then was centrifuged for 3 min at 1000 rpm. The supernatant was discarded, and the cells were washed with 1 mL of PBS, centrifuged for 3 min at 1000 rpm and then the supernatant was discarded. Afterwards, 500 μL of the acridine orange (AO) working solution was used to stain the cells which then were incubated for 30 min at 37 °C under 5% CO2. The deactivation of the staining process was performed by adding 1 mL of PBS, and after centrifugation for 3 min at 1000 rpm, the supernatant was discarded. The cells were resuspended in 1 mL of PBS and analysed by flow cytometry.

[7] = tested on: NIH3T3 (normal mouse embryonic fibroblast) cells; assay: CV (crystal violet) assay, NIH3T3 cells; assay type: cell-based; conditions: CV assay, 48 h incubation, normal cells; read-out: IC50 (mean ± SD), NIH3T3, CV
Experimental: as §1, §2

SMILES	IC50 [1]	IC50 [2]	IC50 [3]	production of ROS/RNS species [4]	cell cycle phase distribution [5]	autophagy (AO) [6]	IC50 [7]	cell population in G1/G0 phase [5]	cell population in S and G2/M phases [5]	population of cells in the sub-G1 phase [5]
O=C(CCc1nc(-c2ccccc2)c(-c2ccccc2)o1)[O][Sn]([c]1ccccc1)([c]1ccccc1)[c]1ccccc1 [Ph3SnL1, (3-(4,5-Diphenyloxazol-2-yl)propanoato)triphenyltin(IV)]	0.556 ± 0.038 µM	0.181 ± 0.027 µM	366 ± 51 nM	does not affect the production of ROS and RNS	does not lead to any significant changes in the cell cycle distribution	autophagy process is not triggered	2.66 ± 0.52 µM			
N.N.[Cl][Pt][Cl] [cisplatin, reference compound]	13 ± 0.45 µM	14.3 ± 0.26 µM	3650 ± 350 nM	elevates the production of both reactive oxygen and nitrogen species		induces an autophagic response	14.2 ± 1.95 µM	considerable decrease	increase	did not lead to any observable changes
